PubChem BioAssay AID1963427 (Molecular Pharmacology Branch, DTP, NCI, 2024)

System: 317291-083-R-J1-PDC complex spheroid growth
Assay: Anticancer human tumor 317291-083-R-J1-PDC patient-derived soft tissue sarcoma cell line growth inhibition [Asc]
Settings: for IC50: curve of first compound; for viability, T/C: stronger effect = lower value; active means viability on the fitted dose curve at most 10% of control; inactive means the rest
Method: Multicellular complex tumor spheroid response to apoptosis pathway targeting inhibitors Alrizomadlin, Pelcitoclax, and Dasminapant in combination with a variety of drugs and investigational agents in selected tumor cell lines
The MDM2 inhibitor alrizomadlin, the Bcl-2/Bcl-xL inhibitor pelcitoclax, and the IAPs inhibitor dasminapant were evaluated both individually and in combination with standard of care and investigational anticancer small molecules within a complex spheroid model of solid tumors. . Complex spheroids include a stromal component modeled by human endothelial cells (HUVEC) and fibroblasts modeled by human mesenchymal stem cells (MSCs). The concentration ranges selected for each drug and investigational agent were based upon clinically achievable concentrations if the clinical Cmax of the agent was known.
Compounds. The drugs and investigational agents: alrizomadlin (APG-115; NSC831270), pelcitoclax (APG-1252; NSC835773), dasminapant (APG-1387;NSC834197), TAK-243 (NSC785004), copanlisib (NSC809693), olaparib (NSC753686), talazoparib (NSC767125), cobimetinib (NSC 768068), eltanexor (KPT-8602, NSC 794443), abemaciclib (NSC 768073), sotorasib (NSC818433), adagrasib (NSC 831453), MRTX-1133 (NSC 836407), Iadademestat (ORY1001, NSC 806812), and RMC-4630 (NSC839698), were obtained from the NCI Developmental Therapeutics Program Chemical Repository. The FDA-approved anticancer drug set is available from the Developmental Therapeutics Program at https://dtp.cancer.gov/organization/dscb/obtaining/available plates.htm. […] The stock solutions were prepared in dimethyl sulfoxide (DMSO, Sigma-Aldrich, St. Louis, MO, cat. D2650) at 800-fold the tested concentration and stored at -70 degrees C prior to their use. All drugs and investigational agents were tested over a range starting from a high concentration at or near the clinical Cmax and decreasing in half-log increments. If the clinical Cmax for an agent had not been determined, the highest concentration tested was 10 microM.
The patient-derived cancer (PDC) cell lines include five colon adenocarcinomas: 186277-243-T-J2-PDC, 616215-338-R-J1-PDC, 439559-082-T-J2-PDC, 463943-066-T-J2-PDC, and 519858-162-T-J1-PDC; three pancreatic carcinomas: 323965-272-R-J2-PDC, 521955-158-R6-J3-PDC, and 521955-158-R2-J5-PDC; two uterine sarcomas: 327498-152-R-J2-PDC and 993429-296-R-J1-PDC; two rhabdomyosarcomas: 755483-174-R-J1-PDC and 772245-204-R-J1-PDC; two soft tissue sarcomas: 126254-015-R-J1-PDC and 494315-158-R-J1-PDC; two malignant fibrous histiocytomas: 317291-083-R-J1-PDC and 596521-263-R-J1-PDC; two breast carcinomas: 171881-019-R-J1-PDC and 885512-296-R-J2-PDC; and one ovarian carcinoma: 6556581-035-R-J-PDC were obtained from the NCI PDMR, (https://pdmr.cancer.gov). The established cell lines HSSY-2 synovial sarcoma (RRID:CVCL 8719), SYO-1 synovial sarcoma (RRID:CVCL_7146), MPNST malignant peripheral neural sheath tumor were obtained from the Sloan Kettering Institute. The following established cell lines were purchased from the American Type Culture Collection (ATCC, Manassas, VA), Sor the received from the NCI repository:, PANC-1 pancreatic carcinoma (CRL-1469, RRID:CVCL_0480), OVCAR-5 ovarian carcinoma (RRID:CVCL_1628), OVCAR-8 ovarian carcinoma (RRID:CVCL_1629), , MCF-7 breast carcinoma (CRL-12584, RRID:CVCL_0031), MDA-MB-231 breast carcinoma (CRL-12532, RRID:CVCL_0062), NCI-H1876 small cell lung carcinoma (CRL-5902, RRID:CVCL_1503), NCI-H510A small cell lung carcinoma (HTB-184, RRID:CVCL_1565), NCI-H1417 (CRL-5869, RRID:CVCL_1469), and NCI-H196 small cell lung carcinoma (CRL-5823, RRID:CVCL_1509). Dr. Peter Houghton (Greehey Children's Cancer Research Institute, University of Texas Health Science Center, San Antonio, TX) provided Rh-18 rhabdomyosarcoma (RRID:CVCL_1659). Pooled donor human umbilical vein endothelial cells (HUVEC, Lonza, cat. CC-2519) and human mesenchymal stem cells (hMSC, Lonza, cat. PT-2501) were purchased from Lonza (Walkersville, MD).
Cell Culture. […]

[1] = second compound 0.00949 µM, first compound 0.00316 µM
[2] = second compound 0.00949 µM, first compound 0.01 µM
[3] = second compound 0.00949 µM, first compound 0.0316 µM
[4] = second compound 0.00949 µM, first compound 0.1 µM
[5] = second compound 0.00949 µM, first compound 0.316 µM
[6] = second compound 0.00949 µM, first compound 1 µM
[7] = second compound 0.03 µM, first compound 0.00316 µM
[8] = second compound 0.03 µM, first compound 0.01 µM
[9] = second compound 0.03 µM, first compound 0.0316 µM
[10] = second compound 0.03 µM, first compound 0.1 µM
[11] = second compound 0.03 µM, first compound 0.316 µM
[12] = second compound 0.03 µM, first compound 1 µM
[13] = second compound 0.0949 µM, first compound 0.00316 µM
[14] = second compound 0.0949 µM, first compound 0.01 µM
[15] = second compound 0.0949 µM, first compound 0.0316 µM
[16] = second compound 0.0949 µM, first compound 0.1 µM
[17] = second compound 0.0949 µM, first compound 0.316 µM
[18] = second compound 0.0949 µM, first compound 1 µM
[19] = second compound 0.3 µM, first compound 0.00316 µM
[20] = second compound 0.3 µM, first compound 0.01 µM
[21] = second compound 0.3 µM, first compound 0.0316 µM
[22] = second compound 0.3 µM, first compound 0.1 µM
[23] = second compound 0.3 µM, first compound 0.316 µM
[24] = second compound 0.3 µM, first compound 1 µM
[25] = second compound 0.949 µM, first compound 0.00316 µM
[26] = second compound 0.949 µM, first compound 0.01 µM
[27] = second compound 0.949 µM, first compound 0.0316 µM
[28] = second compound 0.949 µM, first compound 0.1 µM
[29] = second compound 0.949 µM, first compound 0.316 µM
[30] = second compound 0.949 µM, first compound 1 µM
[31] = second compound 3 µM, first compound 0.00316 µM
[32] = second compound 3 µM, first compound 0.01 µM
[33] = second compound 3 µM, first compound 0.0316 µM
[34] = second compound 3 µM, first compound 0.1 µM
[35] = second compound 3 µM, first compound 0.316 µM
[36] = second compound 3 µM, first compound 1 µM
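Further: compound exposure lasted seven days after spheroids formed for three days.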
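Wherever viability, T/C is given: 100% = DMSO vehicle control wells.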

CCN1CCN(Cc2ccc(Nc3ncc(F)c(-c4cc(F)c5nc(C)n(C(C)C)c5c4)n3)nc2)CC1 + CCN1C(C(=O)NC23CCC(C(=O)O)(CC2)CC3)C(c2cccc(Cl)c2F)C2(C(=O)Nc3cc(Cl)ccc32)C12CCCCC2
inactive: viability, T/C [1] 95% | viability, T/C [2] 95.8% | viability, T/C [3] 100% | viability, T/C [4] 115% | viability, T/C [5] 91.2% | viability, T/C [6] 55.4% | viability, T/C [7] 99.7% | viability, T/C [8] 101% | viability, T/C [9] 97.9% | viability, T/C [10] 103% | viability, T/C [11] 80.1% | viability, T/C [12] 53% | viability, T/C [13] 97.7% | viability, T/C [14] 89.3% | viability, T/C [15] 97% | viability, T/C [16] 112% | viability, T/C [17] 88.4% | viability, T/C [18] 41.6% | viability, T/C [19] 100% | viability, T/C [20] 93.1% | viability, T/C [21] 80.6% | viability, T/C [22] 86.4% | viability, T/C [23] 68.1% | viability, T/C [24] 79.6% | viability, T/C [25] 106% | viability, T/C [26] 96.7% | viability, T/C [27] 79.1% | viability, T/C [28] 91.1% | viability, T/C [29] 73.1% | viability, T/C [30] 44.5% | viability, T/C [31] 77.5% | viability, T/C [32] 77% | viability, T/C [33] 78.9% | viability, T/C [34] 72.2% | viability, T/C [35] 56.6% | viability, T/C [36] 60.9%
814 nM: IC50 (second compound 0.0949 µM)
837 nM: IC50 (second compound 0.949 µM)
> 1000 nM: IC50 (second compound 0.00949 µM) | IC50 (second compound 0.03 µM) | IC50 (second compound 0.3 µM) | IC50 (second compound 3 µM)

O=C(c1ccc(F)c(F)c1Nc1ccc(I)cc1F)N1CC(O)([C@@H]2CCCCN2)C1 + CCN1C(C(=O)NC23CCC(C(=O)O)(CC2)CC3)C(c2cccc(Cl)c2F)C2(C(=O)Nc3cc(Cl)ccc32)C12CCCCC2
549 nM: IC50 (second compound 0.0949 µM)
540 nM: IC50 (second compound 0.00949 µM)
528 nM: IC50 (second compound 0.949 µM)
526 nM: IC50 (second compound 0.3 µM)
inactive: viability, T/C [1] 101% | viability, T/C [2] 89% | viability, T/C [3] 106% | viability, T/C [4] 101% | viability, T/C [5] 71.9% | viability, T/C [6] 24.8% | viability, T/C [7] 91.2% | viability, T/C [8] 94.8% | viability, T/C [9] 85% | viability, T/C [10] 117% | viability, T/C [11] 64.9% | viability, T/C [12] 15.8% | viability, T/C [13] 103% | viability, T/C [14] 90.8% | viability, T/C [15] 98.2% | viability, T/C [16] 113% | viability, T/C [17] 69.8% | viability, T/C [18] 28.4% | viability, T/C [19] 124% | viability, T/C [20] 95.1% | viability, T/C [21] 86.3% | viability, T/C [22] 107% | viability, T/C [23] 71.4% | viability, T/C [24] 23% | viability, T/C [25] 105% | viability, T/C [26] 105% | viability, T/C [27] 114% | viability, T/C [28] 104% | viability, T/C [29] 72.2% | viability, T/C [30] 22.4% | viability, T/C [31] 105% | viability, T/C [32] 92.7% | viability, T/C [33] 96.8% | viability, T/C [34] 90.2% | viability, T/C [35] 55.4% | viability, T/C [36] 24.8%
448 nM: IC50 (second compound 0.03 µM)
389 nM: IC50 (second compound 3 µM)
